The nature of series [1]: Cytotoxicity assay (MTT) on Vero E6 cells. Type of series: cell-based. Particulars: African green monkey; VERO E6 cells, MTT, 3 days; read-out: CC50 ± SD (half-maximal cytotoxic concentration). How it is done:
Compounds characterized by the best anti-enzymatic activity were tested against ZIKV in cellular assays. VERO E6 cells were infected with ZIKV at a multiplicity of infection (M.O.I.) of 0.1, and their activities were evaluated by a plaque reduction assay three days post-infection. Ribavirin was used as a reference compound. As reported in Table 2, compound 1, identified in the first screening, was unable to inhibit viral replication up to a 100 μM concentration. […] The cytotoxicity of the series was determined on the same cell line. […] Their selectivity indexes were calculated as the ratio between CC50 and IC50 values; the results highlight their promising safety profile.
Monolayers of 2.5 × 10^4 Vero E6 cells per well were grown in flat-bottom 96-well culture plates and allowed to adhere overnight. Then, when the cell layers were confluent, the medium was removed, the wells were washed twice with PBS, treated with 100 µL of DMEM with 10 µL DMSO alone (cell positive control) or with various concentrations of anti-NS5 inhibitory compounds under study (compound final concentrations of 100, 10, 1, 0.1, and 0.01 μM), and incubated for 3 days at 37 °C in a CO2. After treatment, an MTT (3-(4,5-dimethylthiazol-2-yl)-2,5-diphenyltetrazolium bromide) kit (Roche, Milan, Italy) was used according to the supplier’s instructions, and the absorbance of each well was determined using a microplate spectrophotometer at a wavelength of 570 nm. Cytotoxicity was calculated by dividing the average optical density of treated samples by the average of DMSO-treated samples (cell positive control).

The subject of the next series is ZIKV. Kind of series: ZIKV inhibitory viral plaque reduction assay in Vero E6 cells. Type of series: cell-based, Zika virus. (In general: Plaque reduction counts the foci of infection that form in a cell layer.)
For the next series, the target named is T1, ZIKV NS5 MTase (Zika virus, UniProt A0A024B7W1).
T1 construct: KJ776791.2, aa 4–278; His6 (N); made in house; host or cells: Escherichia coli T7 Express Iq
T1 sequence (A0A024B7W1 2524-2798): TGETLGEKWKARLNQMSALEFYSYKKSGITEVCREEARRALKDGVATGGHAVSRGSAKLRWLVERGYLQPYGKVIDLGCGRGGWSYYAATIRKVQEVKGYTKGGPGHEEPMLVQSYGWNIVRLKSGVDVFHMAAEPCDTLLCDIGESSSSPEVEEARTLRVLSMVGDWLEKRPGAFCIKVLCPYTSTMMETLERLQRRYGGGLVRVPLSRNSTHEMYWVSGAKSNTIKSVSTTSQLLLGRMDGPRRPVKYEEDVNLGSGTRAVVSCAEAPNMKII
Kind of series: ZIKV NS5 MTase radioactive filter-binding assay (2′-O-MTase activity). Type of series: biochemical. Particulars: at least two experiments, read-out: IC50 (half-maximal inhibitory enzymatic concentration). How it is done: Selected compounds were evaluated in enzymatic inhibition assays against both ZIKV and DENV 2′-O-MTase activity (For details, see Figure S3 in Supplementary Materials). The screening of compounds at a concentration of 50 µM highlighted a higher inhibitory activity against ZIKV MTase. We thus focused our efforts on ZIKV and determined the IC50 values against ZIKV MTase.
Expression and purification of ZIKV NS5 MTase: The coding sequence of the ZIKV NS5 MTase domain (strain H/PF/2013, GenBank accession no. KJ776791.2, aa 4–278) was synthesized by Genscript and cloned into a pQE30 vector (Qiagen, Hilden, Germany) with an N-terminal His6 tag. The protein was expressed and purified following the procedures described in Coutard et al..
Briefly, after expression in Escherichia coli T7 Express Iq (New England BioLabs) in Terrific Broth at 17 °C overnight, bacterial pellets were resuspended in lysis buffer (50 mM Tris-HCl [pH 8], 300 mM NaCl, 5% glycerol, 0.1% Triton, 10 μg/mL DNase I, 2 tablets of EDTA-free antiprotease cocktail [Roche] and 0.25 mg/mL lysozyme). Following cell lysis and clarification, the protein was purified by affinity on immobilized metal affinity chromatography (IMAC, His prep column [GE Healthcare]), followed by size exclusion chromatography (Superdex S75 HR 16/20 column [GE Healthcare]). The NS5-MTase was concentrated and stored at −20 °C after adding glycerol to a final concentration of 40%.
Filter-binding assay: The transfer of tritiated methyl from ^[3H]SAM onto RNA substrate was monitored by a filter-binding assay (FBA), performed according to the method described previously. FBA was carried out in a reaction mixture [40 mM Tris-HCl (pH 8.0), 1 mM DTT, 2 μM SAM, and 0.1 μM 3H-SAM (Perkin Elmer, Shelton, CT, USA)] in the presence of 0.7 μM synthetic ^7mGpppAC4 and ZIKV NS5 MTase (500 nM). The enzyme was first mixed with an increasing concentration of inhibitors, previously suspended in dimethyl sulfoxide (DMSO), before the addition of RNA substrate and SAM, and then incubated at 30 °C. The final DMSO concentration in reactions was 5%. Reaction mixtures were stopped after 30 min incubation by their 10-fold dilution in ice-cold water. Samples were transferred to diethylaminoethyl (DEAE) filtermat (Perkin Elmer, Shelton, CT, USA) using a Filtermat Harvester (Packard Instruments, Meriden, CT, USA). The RNA-retaining mats were washed twice with 10 mM ammonium formate pH 8.0, twice with water, and once with ethanol before drying. They were soaked with scintillation fluid (Perkin Elmer, Shelton, CT, USA), and 3H-methyl transfer to the RNA substrates was determined using a Wallac MicroBeta TriLux Liquid Scintillation Counter (Perkin Elmer, Shelton, CT, USA). For IC50 measurements, values were normalized and fitted with Prism (GraphPad software version 10.1.1) using the following equation: Y = 100/(1 + ((X/IC50) ^ Hillslope)).

A short description of series [2]: Median lethal dose assessment in Tenebrio molitor coleoptera. It counts as in vivo. The following applies: in vivo, 200 mg/kg, single dose into hemocoel, 7 days observation. How it is done:
(§1) The median lethal dose (LD50) was determined for compound 17 in a Tenebrio molitor coleoptera (TMC) toxicity model published previously. Due to ethical reasons, and according to the 3Rs principle, the insect model was preferred to the murine model to preliminarily evaluate the potential in vivo toxicity. […] The experiment was repeated until LD50 was determined and finally confirmed with ten TMCs. […] Even if complete pharmacokinetics should be performed to determine plasmatic levels, the administered concentration was higher than IC50. Considering that no antiviral efficacy models have been developed in insects, future studies with optimized compounds should be translated into suitable models (i.e., mice).
(§2) Tenebrio molitor coleoptera (TMC) and pupae for acute toxicity tests were fed at the University of Siena (Siena, Italy) on a diet previously published. Pupae and adult TMC were reared in semi-dark conditions at a temperature of 27 ± 1 °C and a relative humidity (RH) of 40–50%.
(§3) Median lethal dose assessment was carried out as previously published. Three days after the mutation, TMCs were randomly chosen. The appropriate amount of compound 17 was solubilized at the appropriate dose expressed in mg/kg of insect weight. […]

Series [3] deals with Tenebrio molitor coleoptera (TMC). Described as above. It counts as in vivo. Particulars: acute administration. How it is done: as §1, §2, §3

This note sets out measurements from publication PMC10888717, “Identification of Novel Non-Nucleoside Inhibitors of Zika Virus NS5 Protein Targeting MTase Activity” (International Journal of Molecular Sciences, 2024).

“Also recorded” adds a separate entry of the source.

`CN1C(=O)c2ccc(NC(=O)c3cc4cccc(Cl)c4s3)cc2C1=O` [Compound 17]: the CC50 at 3 days in series [1] was greater than 100 µM. Also, the “SI (Selectivity Index, ratio between CC50 and IC50)” value in the series with ZIKV (VERO E6 cells) is listed as greater than 200. Also, the IC50 in the series on ZIKV (Zika virus, Vero C1008, read-out: IC50 ± SD (half-maximal inhibitory concentration, ZIKV plaque reduction)) came out at 500 ± 100 nM; at ZIKV NS5 MTase, 11.4 µM. Further, the LD50 at 7 days in series [2] worked out at 150 mg/kg. For the same compound, the “in vivo toxicity (in words)” value in series [3] is “well tolerated; also recorded: less toxic than commonly used drugs such as paracetamol and carbamazepine”.

One may read the LD50 as the dose expected to kill half of the subjects tested.
